From patent publication US20260345584A1, “METHODS AND PHARMACEUTICAL COMPOSITIONS FOR TREATING CHEMOTHERAPY-INDUCED PERIPHERAL NEUROPATHY WITH EG5 INHIBITORS” (UNIVERSITY OF MIAMI, priority 2023, published 2026)

Key:
[1] = system: microtubule detyrosination in keratinocytes; test: GluTub immunofluorescence of detyrosinated microtubules in zebrafish caudal fin keratinocytes; type: in vivo; settings: 96 hr
Description: (§1) The stock solution was divided into 20-30 μl aliquots and stored at −20 °C until use (maximal 6 months). Immediately prior to use, paclitaxel was diluted in Ringer's solution and added to dechorionated larval zebrafish. The larval fish were placed individually or in small groups into wells of a 12-well plate containing the treatment solutions. The control group was 0.05% DMSO. Plates were incubated at 28.5 °C and protected from light. Treatment lengths are indicated in the Drawings, Description of the Drawings, and Examples where appropriate. […] EMD534085, Eg5 inhibitor (MedChemExpress, Cat. No. HY-15000) was diluted in 100% DMSO to make a 10 mM stock solution and stored at −20 °C. […] The solutions were exchanged every 48 hr.
Larval fish were transferred into […] glass vials and fixed in 4% paraformaldehyde (PFA)/1× Phosphate-buffered saline (PBS) for 1.5 hr at room temperature, with gentle rocking. Following a 5-minute incubation in 1×PBS+0.1% Tween-20 (PBST), zebrafish were permeabilized in 1×PBS+0.1% Triton X-100 for 10-30 min. Larval fish were transferred into 2 ml reaction tubes and incubated in blocking buffer (1×PBST+5% BSA) for 30 min at room temperature, with rocking. Larval fish were further incubated overnight in antibody solution (Millipore Sigma, Cat. No. AB3201, 1:300 rabbit anti-GluTub; Sigma, Cat No. T6793, 1:500 mouse anti-acetylated tubulin) in blocking buffer at 4 °C, on a rotator. The next morning, larval fish were transferred into 6-well plates and washed 4×15 min in 1×PBST at room temperature, with rocking. This was followed by incubation in secondary antibody (goat anti-rabbit Cy5, Abcam, Cat. No. ab97077; goat anti-mouse Cy3, Abcam, Cat. No. ab97035) and 1:10,000 Hoechst 33342 (ThermoFisher Scientific, Cat. No. 62249, 20 mM solution) in blocking buffer for 1 hr at room temperature, with rocking. Fish were covered to avoid bleaching. […]
Fluorescence intensities were measured using the Imaris MATLAB plugin or Fiji. A line was typically placed over the region of interest and the fluorescence automatically quantified. The values were normalized to nuclear (Hoechst33342) fluorescence intensities within the same fish and region to obtain an intensity ratio.
Stabilized microtubules undergo a modification whereby the terminal tyrosine residue was removed, leading to detyrosination (dMT) (Roll-Mecak et al., 2020, Developmental cell 54: 7-20), which was associated with particularly long-term stabilized microtubule populations (Khawaja et al., 1988, The Journal of cell biology 106: 141-149). Exposure of the penultimate glutamate residue can be detected using a GluTub antibody. […]

[2] = system: caudal fin keratinocytes (dfMTs); test: dfMT formation (detyrosinated fasciculated looped microtubules) in zebrafish caudal fin keratinocytes; type: in vivo
Description: as §1
(§2) Larval fish were transferred into […] glass vials and fixed in 4% paraformaldehyde (PFA)/1× Phosphate-buffered saline (PBS) for 1.5 hr at room temperature, with gentle rocking. Following a 5-minute incubation in 1×PBS+0.1% Tween-20 (PBST), zebrafish were permeabilized in 1×PBS+0.1% Triton X-100 for 10-30 min. Larval fish were transferred into 2 ml reaction tubes and incubated in blocking buffer (1×PBST+5% BSA) for 30 min at room temperature, with rocking. Larval fish were further incubated overnight in antibody solution (Millipore Sigma, Cat. No. AB3201, 1:300 rabbit anti-GluTub; Sigma, Cat No. T6793, 1:500 mouse anti-acetylated tubulin) in blocking buffer at 4 °C, on a rotator. The next morning, larval fish were transferred into 6-well plates and washed 4×15 min in 1×PBST at room temperature, with rocking. This was followed by incubation in secondary antibody (goat anti-rabbit Cy5, Abcam, Cat. No. ab97077; goat anti-mouse Cy3, Abcam, Cat. No. ab97035) and 1:10,000 Hoechst 33342 (ThermoFisher Scientific, Cat. No. 62249, 20 mM solution) in blocking buffer for 1 hr at room temperature, with rocking. Fish were covered to avoid bleaching. Fish were washed for 4×15 min in 1×PBST at room temperature, with rocking, and immediately mounted for imaging on glass bottom petri dishes (Spectrum Laboratory Products, Cat. No. 750-10403-UE) using 1% agarose (Thermo Fisher Scientific, Cat. No. 16520050). A 1:200 dilution was used for mouse alpha-tubulin antibody (Proteintech, Cat. No. 66031-1) and a 1:1,000 dilution of donkey anti-mouse IgG Alexa488 (ThermoFisher Scientific, Cat. No. A-21202) for secondary detection. For Nox1 immunostaining, a 1:300 dilution of primary antibody (Anti-NOX1 Rabbit Polyclonal Antibody, Avantar, Cat. No. 102164-796) and a 1:1,000 dilution of secondary goat anti-rabbit Cy2 (Abcam, Cat. No. ab6940) antibody was used. Eg5 antibody (Abcam, Cat. No. 61199) was used at a 1:100 and secondary goat anti-rabbit Cy2 (Abcam, Cat. No. ab6940) at 1:1,000 dilution.
CRISPR oligos targeting kif11 were designed using the IDT CRISPR design tool (https://www.idtdna.com/site/order/designtool/index/CRISPR_CUSTOM). The oligo (5′-[…] (SEQ ID NO: 21) was designed to anneal within exon 5 of 23 exons total in zebrafish kif11 with expected mutations ~ position 270 bp in the sequenced region using the following primers for PCR amplification: Fwd 5′-[…]-3′ (SEQ ID NO: 22) and Rev 5′-[…]-3′ (SEQ ID NO: 23). The forward primer was used for sequencing and yielded deletions in transiently injected embryos, as shown in example below in which single zebrafish were sequenced (FIG. 10).
The CRISPR oligo was injected using the Alt-R system (IDT, https://www.idtdna.com/pages/technology/crispr/crispr-genome-editing/Alt-R-systems/cas9), which has provided highly reliable and efficient zebrafish knockout results as used herein. The IDT-recommended protocol (below) was used for CRISPR oligo preparations. Fertilized eggs were injected ~15 minutes post fertilization with CRISPR oligos to ensure maximal efficiency.
Cell counting in the caudal fin was performed in three 100 μm^2 boxes in the dorsal, medial and ventral caudal fin (~100 μm from the edge). […]

cutaneous sensory axons = test: Axon branch number in caudal fin (acetylated tubulin staining); type: in vivo, zebrafish
Description: as §1, §2
Axon branch number quantifications were performed by drawing a 50 μm line across the dorsal, medial, and ventral caudal fin edge region at a distance of 100 μm parallel to the fin edge (which was determined to be the most reliable region to quantify distal branch numbers). Axons traversing this line were counted and averaged per treatment group. Axonal fluorescence measurements were taken using the Imaris Spots function by manually placing spots along the axon and using the fluorescence intensity profile measurements MatLab tool.
Stretching was performed after 96 hr treatment, followed by 2 hr post-stretch fixation, and staining for detection of acetylated tubulin in axons.
To further validate Eg5 as the pharmacological target of EMD534085 in axon regeneration, zebrafish injected with kif11 CRISPR oligo were also analyzed.

Eg5 = Eg5 immunofluorescence in zebrafish caudal fin; type: in vivo; settings: transient kif11 CRISPR, exon 5
Description: as §1
Larval fish were transferred into […] glass vials and fixed in 4% paraformaldehyde (PFA)/1× Phosphate-buffered saline (PBS) for 1.5 hr at room temperature, with gentle rocking. Following a 5-minute incubation in 1×PBS+0.1% Tween-20 (PBST), zebrafish were permeabilized in 1×PBS+0.1% Triton X-100 for 10-30 min. Larval fish were transferred into 2 ml reaction tubes and incubated in blocking buffer (1×PBST+5% BSA) for 30 min at room temperature, with rocking. […]

[3] = system: CIPN caused by bortezomib; settings: mice (Bobylev et al., 2017); cited from earlier work
mouse DRG neurons = settings: cultured mouse DRG neurons (Haque et al., 2004); cited from earlier work

Molecule | normalized detyrosination fluorescence intensity ([1]; kif11 CRISPR + paclitaxel) | normalized detyrosination fluorescence intensity ([1]; kif11 CRISPR+vehicle) | number of keratinocytes per animal with dfMTs ([2]; kif11 CRISPR+22 μM paclitaxel) | percent animals with dfMTs ([2]; kif11 CRISPR+22 μM paclitaxel) [%] | number of keratinocytes per animal with dfMTs ([2]; kif11 CRISPR+vehicle) | percent animals with dfMTs ([2]; kif11 CRISPR+vehicle) [%] | axon branch number (cutaneous sensory axons; kif11-CRISPR+22 μM paclitaxel) [branches/50 μm] | axon branch number (cutaneous sensory axons; kif11-CRISPR+vehicle) [branches/50 μm] | Eg5 protein expression (Eg5) | effect on CIPN caused by bortezomib [3] | neurite outgrowth (mouse DRG neurons)
kif11 CRISPR: CRISPR oligo (5′-AGGTGACCGATCACCCAATG (SEQ ID NO: 21)) targeting exon 5 of zebrafish kif11, injected as Cas9 ribonucleoprotein (injected as Cas9 ribonucleoprotein, chemistry not given here) | 0.85±0.11 | 1.12±0.2 | 0.29±0.16 | 25 | 0±0 | 0 | 12.83±0.96 | 12.08±0.68 | eliminated Eg5 protein expression | – | –
CCOC(=O)C1=C(C)NC(=S)NC1c1cccc(O)c1 (centres unmarked) [monastrol] | – | – | – | – | – | – | – | – | – | shown to alleviate CIPN caused by bortezomib | promotes neurite outgrowth
